# Experimental data from PubChem BioAssay AID248 (DTP/NCI, 2004).
# Where “and” joins values, the source holds several entries; their conditions need not be identical. Equal entries are not always repeated. Inconclusive results and toxic doses are left out.
# System: L1210 leukemia ip in BDF1 mice, survival T/C
# Assay: NCI In Vivo Anticancer Drug Screen. Data for tumor model L1210 Leukemia (intraperitoneal) in B6D2F1 (BDF1) mice
# Settings: endpoint: mean survival time, higher = longer survival
# Outline: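 Tumor cells were implanted, animals were treated, and survival was followed. The result divides the treated measurement by the vehicle-control measurement.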
# [1] = dose: 100.0 mg/kg/injection, schedule: Q01DX001 (ip), vehicle: saline
# [2] = dose: 200.0 mg/kg/injection, schedule: Q01DX001 (ip), vehicle: saline
# [3] = dose: 400.0 mg/kg/injection, schedule: Q01DX001 (ip), vehicle: saline
# [4] = dose: 50.0 mg/kg/injection, schedule: Q01DX009 (ip), vehicle: saline with Tween-80
# [5] = dose: 100.0 mg/kg/injection, schedule: Q01DX009 (ip), vehicle: saline with Tween-80
# [6] = dose: 100.0 mg/kg/injection, schedule: Q04DX003 (ip), vehicle: saline with Tween-80
# [7] = dose: 50.0 mg/kg/injection, schedule: Q01DX009 (ip), vehicle: saline
# [8] = dose: 100.0 mg/kg/injection, schedule: Q01DX009 (ip), vehicle: saline
# [9] = dose: 100.0 mg/kg/injection, schedule: Q04DX003 (ip), vehicle: Klucel (hydroxypropylcellulose) (HPC)
# [10] = dose: 200.0 mg/kg/injection, schedule: Q04DX003 (ip), vehicle: Klucel (hydroxypropylcellulose) (HPC)
# [11] = dose: 400.0 mg/kg/injection, schedule: Q04DX003 (ip), vehicle: Klucel (hydroxypropylcellulose) (HPC)
# [12] = dose: 200.0 mg/kg/injection, schedule: Q01DX009 (ip), vehicle: saline with Tween-80
# [13] = dose: 200.0 mg/kg/injection, schedule: Q04DX003 (ip), vehicle: saline with Tween-80
# [14] = dose: 100.0 mg/kg/injection, schedule: Q01DX009 (ip), vehicle: Klucel (hydroxypropylcellulose) (HPC)
# [15] = dose: 200.0 mg/kg/injection, schedule: Q01DX009 (ip), vehicle: Klucel (hydroxypropylcellulose) (HPC)
# [16] = dose: 400.0 mg/kg/injection, schedule: Q01DX009 (ip), vehicle: Klucel (hydroxypropylcellulose) (HPC)
# [17] = dose: 400.0 mg/kg/injection, schedule: Q04DX003 (ip), vehicle: saline with Tween-80
# [18] = dose: 100.0 mg/kg/injection, schedule: Q04DX003 (ip), vehicle: saline
# [19] = dose: 50.0 mg/kg/injection, schedule: Q01DX001 (ip), vehicle: carboxymethylcellulose (CMC)
# [20] = dose: 100.0 mg/kg/injection, schedule: Q01DX001 (ip), vehicle: carboxymethylcellulose (CMC)
# [21] = dose: 200.0 mg/kg/injection, schedule: Q01DX001 (ip), vehicle: carboxymethylcellulose (CMC)
# [22] = dose: 400.0 mg/kg/injection, schedule: Q01DX001 (ip), vehicle: carboxymethylcellulose (CMC)
# [23] = dose: 25.0 mg/kg/injection, schedule: Q01DX009 (ip), vehicle: water
# [24] = dose: 50.0 mg/kg/injection, schedule: Q01DX009 (ip), vehicle: water
# [25] = dose: 100.0 mg/kg/injection, schedule: Q04DX003 (ip), vehicle: water
# [26] = dose: 100.0 mg/kg/injection, schedule: Q04DX002 (ip), vehicle: Klucel (hydroxypropylcellulose) (HPC)
# [27] = dose: 400.0 mg/kg/injection, schedule: Q01DX009 (ip), vehicle: saline with Tween-80
smiles,measurement,setting,value
O=[N+]([O-])c1sc2ccccc2c1/C=C/c1csc2ccccc12,T/C,[1],87 % of control
same,T/C,[2],91 % of control
same,T/C,[3],97 % of control
Oc1cc(-c2ccccc2)c(-c2ccccc2)c(-c2ccccc2)c1-c1ccccc1,T/C,"dose: 100.0 mg/kg/injection, schedule: Q01DX001 (ip), vehicle: saline with Tween-80",100 % of control
same,T/C,"dose: 200.0 mg/kg/injection, schedule: Q01DX001 (ip), vehicle: saline with Tween-80",90 % of control
same,T/C,"dose: 400.0 mg/kg/injection, schedule: Q01DX001 (ip), vehicle: saline with Tween-80",88 % of control
Cc1ccc(NC(=O)ON(C)C)cc1,T/C,"dose: 25.0 mg/kg/injection, schedule: Q04DX002 (ip), vehicle: other",99 % of control
same,T/C,"dose: 50.0 mg/kg/injection, schedule: Q04DX002 (ip), vehicle: other",96 % of control
same,T/C,"dose: 100.0 mg/kg/injection, schedule: Q04DX002 (ip), vehicle: other",92 % of control
NNC(=O)c1ccc([N+](=O)[O-])cc1,T/C,"dose: 25.0 mg/kg/injection, schedule: Q01DX009 (ip), vehicle: saline with Tween-80",97 % of control
same,T/C,[4],92 % of control
same,T/C,[5],95 % of control
same,T/C,[6],95 % of control
C=CCNc1ncnc2c1cnn2C,T/C,[7],118 % of control
same,T/C,[8],103 % of control
CCOC(=O)c1cnc(SC)nc1NC(C)(C)C,T/C,[9],101 % of control
same,T/C,[10],100 % of control
same,T/C,[11],94 % of control
O=C(O/N=C(\C(=O)c1ccccc1)c1ccccc1)c1ccc(Br)cc1,T/C,[4],97 % of control
same,T/C,[5],92 % of control
same,T/C,[6],94 % of control
same,T/C,[12],89 % of control
same,T/C,[13],87 % of control
CC1=CC(=O)C(C(O)(C(F)(F)Cl)C(F)(F)Cl)C(C)(C)C1 (stereo unspecified),T/C,[14],98 % of control
same,T/C,[6],102 % of control
same,T/C,[15],103 % of control
same,T/C,[13],96 % of control
same,T/C,[16],97 % of control
same,T/C,[17],109 % of control
O=CC(NC(=O)C(O)C(O)C(O)C(O)CO)C(O)C(O)C(O)CO (stereo unspecified),T/C,[18],102 % of control
same,T/C,"dose: 200.0 mg/kg/injection, schedule: Q04DX003 (ip), vehicle: saline",97 % of control
same,T/C,"dose: 400.0 mg/kg/injection, schedule: Q04DX003 (ip), vehicle: saline",91 % of control
C/C(=N\O)c1ccc[n+](Cc2ccc(C)cc2)c1,T/C,"dose: 9.38 mg/kg/injection, schedule: Q01DX001 (ip), vehicle: other",97 % of control
same,T/C,"dose: 18.75 mg/kg/injection, schedule: Q01DX001 (ip), vehicle: other",97 % of control
Nc1c(Br)cc2c(c1Br)Cc1cc(Cl)ccc1-2,T/C,[19],93 % of control
same,T/C,[20],98 % of control
same,T/C,[21],93 % of control
same,T/C,[22],93 % of control
ClCCCNCc1ccccc1,T/C,"dose: 25.0 mg/kg/injection, schedule: Q01DX009 (ip), vehicle: saline",111 % of control
same,T/C,[7],97 % of control
same,T/C,[8],97 % of control
same,T/C,[18],94 % of control
CS(=O)c1ncc2cnccn12 (stereo unspecified),T/C,[23],100 % of control
same,T/C,"dose: 25.0 mg/kg/injection, schedule: Q04DX003 (ip), vehicle: saline",107 % of control
same,T/C,[24],99 % of control
same,T/C,"dose: 50.0 mg/kg/injection, schedule: Q04DX003 (ip), vehicle: saline",113 % of control
same,T/C,"dose: 100.0 mg/kg/injection, schedule: Q01DX009 (ip), vehicle: water",102 % of control and 103 % of control
same,T/C,[18],107 % of control
same,T/C,[25],110 % of control
same,T/C,"dose: 200.0 mg/kg/injection, schedule: Q01DX009 (ip), vehicle: water",98 % of control
CCCC(C)(C)C(=O)Nc1cccc(O)c1,T/C,[6],95 % of control
same,T/C,[13],95 % of control
same,T/C,[17],92 % of control
O=C(NCCCl)NC(Cc1ccccc1)Cc1ccccc1,T/C,[9],95 % of control
same,T/C,[10],91 % of control
same,T/C,[11],95 % of control
OCC1OC(n2cnc3c(NO)ncnc32)CC1O (stereo unspecified),T/C,[19],102 % of control
same,T/C,[20],109 % of control
same,T/C,[21],109 % of control
same,T/C,[22],109 % of control
COc1ccc(CC(C(=O)O)c2ccccc2C(=O)O)cc1OC (stereo unspecified),T/C,[1],101 % of control
same,T/C,[2],97 % of control
same,T/C,[3],97 % of control
Cc1c(CBr)c(=O)[nH]c2ccccc12,T/C,[1],100 % of control
same,T/C,[2],98 % of control
Nc1nc(N)c(CCCc2ccccc2)c(N)n1,T/C,[26],87 % of control
NOC(=O)C1C(c2ccccc2)C1(c1ccccc1)c1ccccc1 (stereo unspecified),T/C,"dose: 100.0 mg/kg/injection, schedule: Q01DX001 (ip), vehicle: steriod suspending solution",104 % of control
same,T/C,"dose: 200.0 mg/kg/injection, schedule: Q01DX001 (ip), vehicle: steriod suspending solution",95 % of control
same,T/C,"dose: 400.0 mg/kg/injection, schedule: Q01DX001 (ip), vehicle: steriod suspending solution",117 % of control
C(=N\n1cnnc1)/c1ccc(/C=N/n2cnnc2)cc1,T/C,[5],98 % of control
same,T/C,[6],105 % of control
same,T/C,[12],88 % of control
same,T/C,[13],105 % of control
same,T/C,[27],89 % of control
same,T/C,[17],98 % of control
O=C(O)CSc1ccc(NC(=O)NC2CCCCC2)cc1,T/C,[5],96 % of control
same,T/C,"dose: 100.0 mg/kg/injection, schedule: Q04DX003 (ip), vehicle: saline sonified",114 % of control
same,T/C,[12],91 % of control
same,T/C,"dose: 200.0 mg/kg/injection, schedule: Q04DX003 (ip), vehicle: saline sonified",89 % of control
same,T/C,[27],88 % of control
same,T/C,"dose: 400.0 mg/kg/injection, schedule: Q04DX003 (ip), vehicle: saline sonified",96 % of control
CC12CCC3c4ccc(OCC5CO5)cc4CCC3C1CCC2=O (stereo unspecified),T/C,[4],97 % of control
same,T/C,[5],97 % of control
same,T/C,[12],94 % of control
CC(=N)c1c(O)cc(C)oc1=O,T/C,[6],108 % of control
same,T/C,[13],101 % of control
same,T/C,[17],92 % of control
O=C(Nc1ccccc1Cl)NC1CCCCC1,T/C,[14],100 % of control
same,T/C,[26],95 % of control
same,T/C,[15],97 % of control
same,T/C,"dose: 200.0 mg/kg/injection, schedule: Q04DX002 (ip), vehicle: Klucel (hydroxypropylcellulose) (HPC)",100 % of control
same,T/C,[16],91 % of control
same,T/C,"dose: 400.0 mg/kg/injection, schedule: Q04DX002 (ip), vehicle: Klucel (hydroxypropylcellulose) (HPC)",95 % of control
Oc1ccccc1-n1c(-c2ccccc2)ccc1-c1ccccc1,T/C,"dose: 50.0 mg/kg/injection, schedule: Q01DX001 (ip), vehicle: saline",90 % of control
same,T/C,[1],98 % of control
same,T/C,[2],102 % of control
same,T/C,[3],98 % of control
O=C(NCCNCc1ccccc1)c1ccccc1,T/C,[23],97 % of control
same,T/C,"dose: 25.0 mg/kg/injection, schedule: Q04DX003 (ip), vehicle: water",96 % of control
same,T/C,[24],98 % of control
same,T/C,"dose: 50.0 mg/kg/injection, schedule: Q04DX003 (ip), vehicle: water",107 % of control
same,T/C,[6],108 % of control
same,T/C,[25],92 % of control
O=C(Nc1ccc(C2=NCCCN2)cc1)Nc1ccc(NC(=O)Nc2ccc(C3=NCCCN3)cc2)c(Cl)c1,T/C,"dose: 62.0 mg/kg/injection, schedule: Q01DX Z (ip), vehicle: carboxymethylcellulose (CMC)",163 % of control
same,T/C,"dose: 62.0 mg/kg/injection, schedule: Q01DX Z (oral), vehicle: carboxymethylcellulose (CMC)",110 % of control
same,T/C,"dose: 125.0 mg/kg/injection, schedule: Q01DX Z (oral), vehicle: carboxymethylcellulose (CMC)",110 % of control
same,T/C,"dose: 250.0 mg/kg/injection, schedule: Q01DX Z (oral), vehicle: carboxymethylcellulose (CMC)",116 % of control
same,T/C,"dose: 500.0 mg/kg/injection, schedule: Q01DX Z (oral), vehicle: carboxymethylcellulose (CMC)",111 % of control
CC(=O)Oc1ccc2c(c1)C(=O)CCCC2,T/C,[4],88 % of control
same,T/C,[5],88 % of control
same,T/C,[12],88 % of control
